# Measured values published in patent US4401671A, “Treatment of giardiasis and trichomoniasis” (priority 1982, dated 1983).
# Like-named read-outs stand apart in the source and are kept apart here.
# Legend:
# [1] = cited from earlier work
# [2] = tested on: Giardia lamblia; settings: background statement, human infection; cited from earlier work
# [3] = tested on: Trichomonas foetus; assay: In vitro anti-Trichomonas foetus activity (growth inhibition, viable cell count); type: cell-based, T. foetus KV1; settings: for IC50: Tritrichomonas foetus, read-out: Anti-T. foetus ED50
# [4] = tested on: T. vaginalis; assay: anti-T. vaginalis activity; type: cell-based, Trichomonas vaginalis; settings: as shown in Table 1
# [5] = tested on: Giardia lamblia; assay: In vitro anti-Giardia lamblia activity (growth inhibition, viable cell count by hemacytometer); type: cell-based; settings: Giardia duodenalis, read-out: Anti-G. lamblia ED50
# Description: About 1.0-2.0 ml of a nutrient medium, for example, the modified Diamond's TPS medium at pH 7.05, together with about 10% by volume of heat-inactivated serum and about 1% by volume of antibiotic-antimycotic solution is placed in each well of a multiwell plate. To this mixture, an aliquot of a suspension of G. lamblia cells containing about 10^6 organisms is added. Subsequently, each well is inoculated with a known concentration of one of the active compounds. The multiwell plate containing the individual culture samples is incubated under anaerobic conditions at about 37° C. for about 16-24 hrs. The number of viable cells remaining in each well are then counted, such as with a hemacytometer. […]
# In each well of a mutliwell plate is placed 1.4 ml of media mix containing Diamond's TPS medium (see Table 2) at pH 7.05, 10% by volume of heat-inactivated fetal bovine serum, and 1% by volume of an antibiotic-antimycotic solution (see Table 3). […] The cells are resuspended in a small volume of the Diamond's medium, counted, and each well inoculated with approximately 10^6 organisms. […] After 24 hours of incubation each well is mixed and counted for viable organisms using a hemacytometer. The percentage of survival is determined by comparing the treated wells to controls treated with dimethylsulfoxide. […]
compound,measurement,setting,value
O=C1OCCN1N=Cc1ccc([N+](=O)[O-])o1 [furazolidione],adverse side effects (in words),[1]; background statement,known to cause adverse side effects
same,treatment of giardiasis (in words),[2],successfully treated
"[O-][n+]1ccnc(O)c1 [emimycin, 2-hydroxypyrazine-4-oxide]",IC50,"[3]; effective concentration for 50% inhibition of growth, 37° C., 24 hours, T. foetus KV1",< 1 µg/mL
same,anti-T. vaginalis activity (in words),[4],active anti-T. vaginalis agents
same,IC50,"[5]; effective concentration for 50% inhibition of growth, 37° C., anaerobic, about 16-24 hrs (24 hours in Example 1)",22 µg/mL
"O=c1[nH]cc(F)c(=O)[nH]1 [fluorouracil, 5-fluoro-2,4-(1H, 3H)pyrimidenedione]",anti-T. foetus activity (in words),"[3]; 37° C., 24 hours",effective anti-T. foetus agent
same,IC50,[3]; 24 h,3 µg/mL
same,IC50,[5],100 µg/mL
"Cc1ncc([N+](=O)[O-])n1CCO [Flagyl, metronidazole]",adverse side effects (in words),[1]; in vivo,known to cause adverse side effects
same,treatment of giardiasis (in words),[2],successfully treated
CCN(CC)CCCC(C)Nc1c2ccc(Cl)cc2nc2ccc(OC)cc12 (stereo not drawn) [Atabrine],adverse side effects (in words),[1]; in vivo,known to cause adverse side effects
same,treatment of giardiasis (in words),[2],successfully treated
